# Laboratory results as given in patent US6448283B1, “Methods for preventing/treating damage to sensory hair cells and cochlear neurons” (Cephalon, Inc., priority 1998, dated 2002).
# “Also recorded” adds a separate entry of the source.
# Legend:
# [1] = test system: noise-exposed guinea pigs; assay: ABR threshold shifts, delayed dosing after noise trauma; type: in vivo, guinea pig
# Protocol: Guinea pigs were exposed to 120 dB, 4 kHz noise for 6 hr. The compound of Formula II was administered beginning 2 hours to 1 day prior to noise trauma, or 1 day after noise trauma, or 4 days after noise trauma. Dosing continued for 2 weeks after noise exposure. As described above, cochleas were prepared and numbers of preserved and lost inner hair cells (IHCs) and outer hair cells of different rows (OHC1, OHC2, OHC3) were counted 2 weeks post noise trauma.
# ABRs were determined 1 day before noise trauma (baseline values) and 2 weeks post noise trauma. […] Thresholds were determined at frequencies 2, 4, 8, 16 and 32 kHz from a set of responses at varying intensities with 5 dB intervals and 1000 sweeps near the threshold. ABRs were measured with System II hardware and BioSig software. Ketamine (40 mg/kg) and xylazine (10 mg/kg) were used for anaesthesia.
# [2] = test system: noise-exposed guinea pigs; assay: ABR threshold shifts after noise exposure (Example 2); type: in vivo, guinea pig; conditions: day 6 postexposure; n=11; P<0.05 at 4 and 8 kHz, P<0.01 at 16 kHz
# Protocol: Adult Dunkin-Hartley female guinea pigs (weight 300-500 g) were exposed, 4 animals at a time, to octave band noise, with a center frequency of 4.0 kHz, 120 dB SPL for 6 hr as described in Example 1. Fragmented hair cell nuclei were assessed from noise-exposed cochleas immediately and 1, 2, 4, 6, 8 and 14 days after noise exposure. Noise-exposed and nonexposed guinea pigs were decapitated under deep anesthesia and inner ears were perilymphatically perfused with 4% paraformaldehyde in PBS, and processed for […] paraffin-embedded sections (Ylikoski et al., Hear Res 65:69-78, 1993; Ylikoski et al., Hear Res 124:17-26, 1998). TUNEL-staining was performed as described below. DNA fragmentation was also verified by DAPI nuclear counterstain (see below). Further, trauma-induced nuclear fragmentation was verified by morphological analysis of contralateral cochleas that were perilymphatically fixed with 2.5% glutaraldehyde in 0.1M phosphate buffer, pH 7.4, postfixed with 1% osmium tetroxide, embedded in epoxy resin, and prepared for surface preparations (see below). […]
# Auditory brainstem responses (ABRs) were measured 2 days before noise exposure, and 2, 6 and 14 days after exposure under anesthesia (xylazine 10 mg/kg and ketamine 40 mg/kg). […] Hearing threshold was determined from a set of responses at varying intensities. […]
# [3] = test system: hair cells of the organ of Corti; assay: TUNEL staining of apoptotic hair cells in noise-exposed cochleas; type: in vivo, guinea pig; conditions: first 6 days after noise exposure
# Protocol: Adult Dunkin-Hartley female guinea pigs (weight 300-500 g) were exposed, 4 animals at a time, to octave band noise, with a center frequency of 4.0 kHz, 120 dB SPL for 6 hr as described in Example 1. Fragmented hair cell nuclei were assessed from noise-exposed cochleas immediately and 1, 2, 4, 6, 8 and 14 days after noise exposure. Noise-exposed and nonexposed guinea pigs were decapitated under deep anesthesia and inner ears were perilymphatically perfused with 4% paraformaldehyde in PBS, and processed for […] paraffin-embedded sections (Ylikoski et al., Hear Res 65:69-78, 1993; Ylikoski et al., Hear Res 124:17-26, 1998). TUNEL-staining was performed as described below. DNA fragmentation was also verified by DAPI nuclear counterstain (see below). Further, trauma-induced nuclear fragmentation was verified by morphological analysis of contralateral cochleas that were perilymphatically fixed with 2.5% glutaraldehyde in 0.1M phosphate buffer, pH 7.4, postfixed with 1% osmium tetroxide, embedded in epoxy resin, and prepared for surface preparations (see below). Selected cochlear segments were then cut in transverse and horizontal planes to semi-thin ([…]) sections that were stained with 1% toluidine blue. Analysis was done under an Olympus Provis microscope equipped with Nomarski optics. […]
# [4] = test system: hair cells of cochlear explants; assay: TUNEL staining of hair cells in neomycin-exposed cochlear explants; type: cell-based, rat; conditions: 500 nM Formula II coincubated with neomycin; n=5 explants
# Protocol: Six, 12 and 24 hr after adding 100 μM neomycin to the medium, cochlear cultures were fixed with 4% paraformaldehyde in PBS for 30 min. The specimens were prepared for 5 um-thick paraffin sections. They were stained with a TUNEL-kit, mounted in Vectashield containing DAPI nuclear counterstain (Vector, Burlingame, Calif.), and viewed under an Olympus Provis microscope (Tokyo, Japan) using epifluorescence. In addition to TUNEL-staining, DNA fragmentation was verified under UV illumination using DAPI counterstain.
# [5] = test system: cochlear ganglion neurons; assay: Survival of dissociated cochlear neurons in culture; type: cell-based; conditions: E21 rat cochlear ganglia; Formula II 500 nM; NT-3 2 ng/ml in parallel cultures; 48 hr
# Protocol: Neuronal enriched cultures from embryonic day 21 (E21) rat cochlear ganglia were prepared as previously described (Ylikoski et al., Hear. Res., 1998, 124:17-26). The cultures were maintained in F14 medium (Life Technologies, Gaithesburg, Md.) containing 10% horse serum (Life Technologies). […] After 48 hr, cultures were fixed with 4% paraformaldehyde and responses were assessed under a phase contrast microscope. Surviving neurons were distinguished by a phase-bright cell body and definite neurites.
# [6] = test system: hair cells (IHC, OHC) of the organ of Corti; assay: Cytocochleograms of missing hair cells after noise exposure (Example 2); type: in vivo, guinea pig; conditions: 2 weeks after noise exposure
# motorneurons = conditions: by inhibiting the JNK signaling pathway; Maroney et al., 1998; cited from earlier work
# [7] = test system: pigmented guinea pigs exposed to traumatic octave band noise; assay: ABR hearing thresholds after noise trauma (Example 1); type: in vivo; conditions: guinea pig; 1 mg/kg s.c. daily from 24 h before noise to day 21; noise 4.0 kHz 125 dB SPL 105 min; across test frequencies; 21 days after exposure
# Protocol: Baseline hearing of 8 pigmented guinea pigs (200-300 g) was tested by ABR as described below. ABR is a measure of hearing function. Four animals were treated with daily subcutaneous (s.c.) injections of the compound of Formula II, 1 mg/kg, starting 24 hours prior to noise trauma and lasting until 21 days after exposure to the noise trauma. Four animals served as controls and received only vehicle (the fourth animal died under anaesthesia). All the animals were exposed to traumatic octave band noise, center frequency 4.0 kHz, 125 dB SPL (sound pressure level) for 105 min.
# ABR thresholds were again determined 21 days after exposure to the noise trauma. ABR thresholds were measured with System II hardware and BioSig software (Tucker Davis Technology). Stimulus with 1 ms cos2 rise and fall and 18 ms plateau was presented with Beyer earphone connected to speculum (placed in the meatus of the external ear canal) at a rate of 20 Hz. Stimulus was calibrated against a Bruel & Kjaer 4134 microphone connected to a Bruel & Kjaer 2203 sound level meter. A Grass P15 preamplifier and custom amplifier provided gain of 10^5 and filtering of 0.3 to 3.0 kHz. Two responses were obtained at each intensity level. Thresholds were determined for the frequencies 2, 4, 8, 16 and 32 kHz from a set of responses at varying intensities with 5 dB intervals and 1000 sweeps near threshold.
structure (smiles),measurement,setting,value
CCSCc1ccc2c(c1)c1c3c(c4c5cc(CSCC)ccc5n5c4c1n2C1C[C@](O)(C(=O)OC)[C@]5(C)O1)CNC3=O [Formula II],average threshold shift of control animals greater than that of treated animals,"[1]; Formula II begun prior to the lesion, noise 120 dB 4 kHz 6 hr, 2 weeks post noise",20-40 dB
same,"ABR threshold shift versus vehicle-treated, noise-exposed controls","[1]; Formula II-treated animals, 2 weeks post noise",less threshold shift at all frequencies tested
same,"ABR threshold shift, delayed administration",[1]; administration begun 1 or 4 days after exposure to noise,Decreased threshold shifts
same,ABR threshold shifts versus noise-exposed control group,[2],significantly less
same,amount of apoptotic hair cell loss versus control cochleas,[3],less
same,TUNEL-labeling in hair cells,[4],prevented
same,survival of cochlear neurons,[5],as efficacious as NT-3
same,hair cell loss versus noise-exposed control (cytocochleograms),[6]; in words,rescues IHCs as well as OHCs of each of the 3 rows; also recorded: significantly lower percentage of sensory hair cells were lost
same,extent of the area of destruction of the organ of Corti,[6]; Formula II treated cochleas,0.1-0.2 mm
same,death of motorneurons in vitro,motorneurons,prevent death of motorneurons in vitro
same,ABR threshold shift,[7],20-40 dB
